Experimental data: US4753953A, “Pyridonecarboxylic acid derivatives and antibacterial pharmaceutical compositions thereof” (priority 1985, dated 1988)
Converted amounts (≈) assume the structure as drawn.

What was measured:
[1] = test system: Staphylococcus aureus 209 P; test: MIC, in vitro antibacterial activity (standard strains); format: cell-based; details: Staphylococcus aureus, 209P; 10^6 cells/ml; Gram +; read-out: MIC
S. aureus Smith = test: as above; format: cell-based, Staphylococcus aureus; details: Staphylococcus aureus; 10^6 cells/ml; Gram +; read-out: MIC
S. epidermidis IID 866 = test: as above; format: cell-based; details: Staphylococcus epidermidis, IID866; 10^6 cells/ml; Gram +; read-out: MIC
[2] = test system: Streptococcus pyogenes (S-8); test: as above; format: cell-based; details: Streptococcus pyogenes; 10^6 cells/ml; Gram +; read-out: MIC
S. pyogenes IID 692 = test: as above; format: cell-based, Streptococcus pyogenes; details: Streptococcus pyogenes, IID692; 10^6 cells/ml; Gram +; read-out: MIC
S. pneumoniae IID 552 = test: as above; format: cell-based; details: Streptococcus pneumoniae, IID552; 10^6 cells/ml; Gram +; read-out: MIC
[3] = test system: Escherichia coli NIHJ JC-2; test: as above; format: cell-based; details: Escherichia coli, NIHJJC2; 10^6 cells/ml; Gram -; read-out: MIC
E. coli ML 4707 = test: as above; format: cell-based, Escherichia coli; details: Escherichia coli, ML4707, 10^6 cells/ml; Gram -; Table 1; read-out: MIC
[4] = test system: Proteus vulgaris IFO 3167; test: as above; format: cell-based; details: Proteus vulgaris, IFO3167; 10^6 cells/ml; Gram -; read-out: MIC
P. mirabilis IID 994 = test: as above; format: cell-based; details: Proteus mirabilis, IID994; 10^6 cells/ml; Gram -; read-out: MIC
[5] = test system: Klebsiella pneumoniae KY(GN)6445; test: as above; format: cell-based; details: Klebsiella pneumoniae; 10^6 cells/ml; Gram -; read-out: MIC
K. pneumoniae 1-220S = test: as above; format: cell-based, Klebsiella pneumoniae; details: Klebsiella pneumoniae, 1220S; 10^6 cells/ml; Gram -; read-out: MIC
[6] = test system: Enterobacter cloacae IID 977; test: as above; format: cell-based; details: Enterobacter cloacae, IID977; 10^6 cells/ml; Gram -; read-out: MIC
Shigella sonnei IID 969 = test: as above; format: cell-based; details: Shigella sonnei, IID969; 10^6 cells/ml; Gram -; read-out: MIC
Description: Minimal inhibitory concentrations (MICs) were determined in accordance with the method recommended by Japan Society of Chemotherapy.

[7] = test system: Pseudomonas aeruginosa V-1; test: as above; format: cell-based; details: Pseudomonas aeruginosa, V1; 10^6 cells/ml; Gram -; read-out: MIC
P. maltophilia GIFU 2491 = test: as above; format: cell-based; details: Stenotrophomonas maltophilia, GIFU2491; 10^6 cells/ml; Gram -; read-out: MIC
[8] = test system: Yersinia enterocolitica IID 981; test: as above; format: cell-based; details: Yersinia enterocolitica, IID981; 10^6 cells/ml; Gram -; read-out: MIC
[9] = test system: Acinetobacter anitratus IID 876; test: as above; format: cell-based; details: Acinetobacter calcoaceticus, IID876; 10^6 cells/ml; Gram -; read-out: MIC
[10] = test system: Alcaligenes faecalis 0114002; test: as above; format: cell-based; details: Alcaligenes faecalis, 0114002; 10^6 cells/ml; Gram -; read-out: MIC
[11] = test system: Bacteroides fragilis GM 7000; test: as above; format: cell-based; details: Bacteroides fragilis, GM7000; 10^6 cells/ml; Gram -; read-out: MIC
B. fragilis 0558 = test: as above; format: cell-based, Bacteroides fragilis; details: Bacteroides fragilis, 0558; 10^6 cells/ml; Gram -; read-out: MIC
B. fragilis 25285 = test: as above; format: cell-based, Bacteroides fragilis; details: Bacteroides fragilis, 25285; 10^6 cells/ml; Gram -; read-out: MIC
F. necrophorum S-45 = test: as above; format: cell-based; details: Fusobacterium necrophorum, S45; 10^6 cells/ml; Gram -; read-out: MIC
F. varium KYA 8501 = test: as above; format: cell-based; details: Fusobacterium varium, KYA8501; 10^6 cells/ml; Gram -; read-out: MIC
E. limosum KYA 8486 = test: as above; format: cell-based; details: Eubacterium limosum, KYA8486; 10^6 cells/ml; Gram +; read-out: MIC
[12] = test system: Propionibacterium acens 11828; test: as above; format: cell-based; details: Propionibacterium, 11828; 10^6 cells/ml; Gram +; read-out: MIC
[13] = test system: Peptococcus magnus KY 017; test: as above; format: cell-based; details: Finegoldia magna, KY017; 10^6 cells/ml; Gram +; read-out: MIC
[14] = test system: Clostridium difficile I-E; test: as above; format: cell-based; details: Clostridioides difficile; 10^6 cells/ml; Gram +
C. perfringens KYA 13123 = test: microbe, parasite or virus in culture; format: cell-based; details: Clostridium perfringens, KYA13123
C. ramosum = test: MIC, in vitro antibacterial activity (standard strains); format: cell-based; details: Thomasclavelia ramosa; 10^6 cells/ml; Gram +; read-out: MIC
Pst. micros UPI 5464-1 = test: as above; format: cell-based; details: Parvimonas micra, UPI54641; 10^6 cells/ml; Gram +; read-out: MIC
[15] = test system: Veillonella parvula KYA 10790; test: as above; format: cell-based; details: Veillonella parvula, KYA10790; 10^6 cells/ml; Gram -; read-out: MIC

`C[C@H]1CN(c2cc3c(cc2F)c(=O)c(C(=O)O)cn3C2CC2)C[C@H]1N` (relative stereo) [Example 33, 7-(cis-3-Amino-4-methyl-1-pyrrolidinyl)-1-cyclopropyl-6-fluoro-1,4-dihydro-4-oxo-3-quinolinecarboxylic acid] showed an MIC [1] of 0.05 µg/mL (≈ 0.145 µM), an MIC (S. aureus Smith) of 0.1 µg/mL (≈ 0.29 µM) and an MIC (S. epidermidis IID 866) of 0.1 µg/mL (≈ 0.29 µM). For the same compound, the MIC [2] was 0.78 µg/mL (≈ 2.26 µM), the MIC (S. pyogenes IID 692) was 0.39 µg/mL (≈ 1.13 µM) and the MIC (S. pneumoniae IID 552) was 0.39 µg/mL (≈ 1.13 µM). The MIC [3] was 0.05 µg/mL (≈ 0.145 µM), the MIC (E. coli ML 4707) was 0.05 µg/mL (≈ 0.145 µM) and the MIC [4] was 0.05 µg/mL (≈ 0.145 µM). It also gave an MIC (P. mirabilis IID 994) of 0.05 µg/mL (≈ 0.145 µM), an MIC [5] of 0.05 µg/mL (≈ 0.145 µM) and an MIC (K. pneumoniae 1-220S) of 0.05 µg/mL (≈ 0.145 µM). For the same compound, the MIC [6] was 0.05 µg/mL (≈ 0.145 µM), the MIC (Shigella sonnei IID 969) was 0.05 µg/mL (≈ 0.145 µM) and the MIC [7] was 0.2 µg/mL (≈ 0.579 µM). The MIC (P. maltophilia GIFU 2491) was 0.39 µg/mL (≈ 1.13 µM), the MIC [8] was 0.05 µg/mL (≈ 0.145 µM) and the MIC [9] was 0.1 µg/mL (≈ 0.29 µM). The MIC [10] was 0.2 µg/mL (≈ 0.579 µM), the MIC [11] was 1.56 µg/mL (≈ 4.52 µM) and the MIC (B. fragilis 0558) was 1.56 µg/mL (≈ 4.52 µM). For the same compound, the MIC (B. fragilis 25285) was 1.56 µg/mL (≈ 4.52 µM), the MIC (F. necrophorum S-45) was 1.56 µg/mL (≈ 4.52 µM) and the MIC (F. varium KYA 8501) was 12.5 µg/mL (≈ 36.2 µM). For the same compound, the MIC (E. limosum KYA 8486) was 0.2 µg/mL (≈ 0.579 µM), the MIC [12] was 12.5 µg/mL (≈ 36.2 µM) and the MIC [13] was 0.39 µg/mL (≈ 1.13 µM). It also gave an MIC [14] of 6.25 µg/mL, an MIC (C. perfringens KYA 13123) of 0.78 µg/mL (≈ 2.26 µM) and an MIC (C. ramosum) of 6.25 µg/mL (≈ 18.1 µM). For the same compound, the MIC (Pst. micros UPI 5464-1) was 0.39 µg/mL (≈ 1.13 µM) and the MIC [15] was 0.39 µg/mL (≈ 1.13 µM).

For `CCn1cc(C(=O)O)c(=O)c2cc(F)c(N3C[C@@H](N)[C@@H](C)C3)c(Cl)c21` (relative stereo) [Example 23, 7-(cis-3-Amino-4-methyl-1-pyrrolidinyl)-8-chloro-1-ethyl-6-fluoro-1,4-dihydro-4-oxo-3-quinolinecarboxylic acid], the MIC [1] was 0.1 µg/mL (≈ 0.272 µM), the MIC (S. aureus Smith) was 0.2 µg/mL (≈ 0.544 µM) and the MIC (S. epidermidis IID 866) was 0.2 µg/mL (≈ 0.544 µM). For the same compound, the MIC [2] was 0.78 µg/mL (≈ 2.12 µM), the MIC (S. pyogenes IID 692) was 0.78 µg/mL (≈ 2.12 µM) and the MIC (S. pneumoniae IID 552) was 0.78 µg/mL (≈ 2.12 µM). The MIC [3] was 0.025 µg/mL (≈ 0.068 µM), the MIC (E. coli ML 4707) was 0.05 µg/mL (≈ 0.136 µM) and the MIC [4] was 0.05 µg/mL (≈ 0.136 µM). For the same compound, the MIC (P. mirabilis IID 994) was 0.05 µg/mL (≈ 0.136 µM), the MIC [5] was 0.05 µg/mL (≈ 0.136 µM) and the MIC (K. pneumoniae 1-220S) was 0.1 µg/mL (≈ 0.272 µM). For the same compound, the MIC [6] was 0.1 µg/mL (≈ 0.272 µM), the MIC (Shigella sonnei IID 969) was 0.05 µg/mL (≈ 0.136 µM) and the MIC [7] was 0.39 µg/mL (≈ 1.06 µM). For the same compound, the MIC (P. maltophilia GIFU 2491) was 0.39 µg/mL (≈ 1.06 µM), the MIC [8] was 0.05 µg/mL (≈ 0.136 µM) and the MIC [9] was 0.39 µg/mL (≈ 1.06 µM). The MIC [10] was 1.56 µg/mL (≈ 4.24 µM), the MIC [11] was 0.78 µg/mL (≈ 2.12 µM) and the MIC (B. fragilis 0558) was 0.78 µg/mL (≈ 2.12 µM). It also gave an MIC (B. fragilis 25285) of 0.78 µg/mL (≈ 2.12 µM), an MIC (F. necrophorum S-45) of 1.56 µg/mL (≈ 4.24 µM) and an MIC (F. varium KYA 8501) of 6.25 µg/mL (≈ 17 µM). The MIC (E. limosum KYA 8486) was 6.25 µg/mL (≈ 17 µM), the MIC [12] was 12.5 µg/mL (≈ 34 µM) and the MIC [13] was 0.78 µg/mL (≈ 2.12 µM). It also gave an MIC [14] of 6.25 µg/mL, an MIC (C. perfringens KYA 13123) of 0.78 µg/mL (≈ 2.12 µM) and an MIC (C. ramosum) of 6.25 µg/mL (≈ 17 µM). It also gave an MIC (Pst. micros UPI 5464-1) of 0.78 µg/mL (≈ 2.12 µM) and an MIC [15] of 0.78 µg/mL (≈ 2.12 µM).
